Measurements as given in ChEMBL document CHEMBL3044591, “Biological Activity of Some 2-Arylamino-4-aryloxyacetyl-2-1, 3, 4-thiadiazolidine Derivatives” (1994).

Columns and labels:
Format in all cases: functional
[1] = system: Bipolaris oryzae; test: Fungicidal activity against Bipolaris oryzae assessed as inhibition at 10 ppm measured after 96 hr by agar growth technique
[2] = system: Bipolaris oryzae; test: Fungicidal activity against Bipolaris oryzae assessed as inhibition at 100 ppm measured after 96 hr by agar growth technique
[3] = system: Bipolaris oryzae; test: Fungicidal activity against Bipolaris oryzae assessed as inhibition at 1000 ppm measured after 96 hr by agar growth technique
[4] = system: Aspergillus niger; test: Fungicidal activity against Aspergillus niger assessed as inhibition at 10 ppm measured after 96 hr by agar growth technique
[5] = system: Aspergillus niger; test: Fungicidal activity against Aspergillus niger assessed as inhibition at 100 ppm measured after 96 hr by agar growth technique
[6] = system: Setaria viridis; test: Herbicidal activity against Setaria viridis (green foxtail) assessed as killing at 6 kg/ha by post-emergent activity assay
[7] = system: Aspergillus niger; test: Fungicidal activity against Aspergillus niger assessed as inhibition at 1000 ppm measured after 96 hr by agar growth technique
[8] = system: Abutilon theophrasti; test: Herbicidal activity against Abutilon theophrasti (velvetleaf) assessed as killing at 6 kg/ha by post-emergent activity assay
[9] = system: Echinochloa crus-galli; test: Herbicidal activity against Echinochloa crus-galli (barnyard grass) assessed as killing at 6 kg/ha by post-emergent activity assay
[10] = system: Triticum aestivum; test: Herbicidal activity against Triticum aestivum (wheat) assessed as killing at 6 kg/ha by post-emergent activity assay
[11] = system: Sorghum halepense; test: Herbicidal activity against Sorghum halepense (Johnson grass) assessed as killing at 6 kg/ha by post-emergent activity assay

Structure (SMILES) | inhibition at 10 ppm [1] [%] | inhibition at 100 ppm [2] [%] | inhibition at 1000 ppm [3] [%] | inhibition at 10 ppm [4] [%] | inhibition at 100 ppm [5] [%] | Activity [6] [%] | inhibition at 1000 ppm [7] [%] | Activity [8] [%] | Activity [9] [%] | Activity [10] [%] | Activity [11] [%]
Cc1ccc(NC2=NN(C(=O)COc3cccc(C)c3)C(c3ccccc3)S2)cc1 (stereo unspecified) | 46 | 61 | 68 | 47 | 62 | 20 | 70 | 60 | 30 | 10 | 50
CC1(C)SC(Nc2ccc(Cl)cc2)=NN1C(=O)COc1ccccc1Cl | 39 | 48 | 58 | 49 | 50 | 50 | 62 | 40 | 50 | 10 | 30
COc1ccc(NC2=NN(C(=O)COc3cccc(C)c3)C(c3ccccc3)S2)cc1 (stereo unspecified) | 50 | 65 | 72 | 51 | 67 | 100 | 74 | 100 | 100 | 10 | 100
O=C(COc1ccccc1Cl)N1N=C(Nc2ccccc2)SC1c1ccccc1 (stereo unspecified) | 75 | 80 | 90 | 77 | 82 | 50 | 92 | 50 | 50 | 20 | 60
COc1ccc(NC2=NN(C(=O)COc3cccc(C)c3)C(C)(C)S2)cc1 | 36 | 54 | 65 | 43 | 58 | 100 | 69 | 100 | 100 | 10 | 100
CC1(C)SC(Nc2ccccc2)=NN1C(=O)COc1ccc(Cl)cc1 | 59 | 67 | 76 | 45 | 69 | 40 | 78 | 40 | 50 | 0 | 60
O=C(COc1ccccc1Cl)N1N=C(Nc2ccc(Cl)cc2)SC1c1ccccc1 (stereo unspecified) | 78 | 80 | 92 | 78 | 83 | 60 | 92 | 50 | 60 | 25 | 40
CC1(C)SC(Nc2ccccc2)=NN1C(=O)COc1ccccc1Cl | 31 | 42 | 52 | 51 | 44 | 50 | 56 | 40 | 60 | 20 | 70
Cc1ccc(NC2=NN(C(=O)COc3ccccc3Cl)C(c3ccccc3)S2)cc1 (stereo unspecified) | 39 | 50 | 60 | 43 | 52 | 50 | 65 | 40 | 50 | 30 | 60
COc1ccc(NC2=NN(C(=O)COc3ccccc3Cl)C(C)(C)S2)cc1 | 31 | 53 | 60 | 37 | 56 | 100 | 65 | 100 | 100 | 10 | 100
COc1ccc(NC2=NN(C(=O)COc3ccccc3Cl)C(c3ccccc3)S2)cc1 (stereo unspecified) | 44 | 58 | 63 | 44 | 59 | 100 | 65 | 100 | 100 | 10 | 90
Cc1ccc(NC2=NN(C(=O)COc3ccccc3Cl)C(C)(C)S2)cc1 | 32 | 44 | 56 | 49 | 52 | 50 | 63 | 50 | 20 | 30 | 50
Cc1cccc(OCC(=O)N2N=C(Nc3ccc(Cl)cc3)SC2c2ccccc2)c1 (stereo unspecified) | 38 | 48 | 58 | 40 | 49 | 50 | 62 | 50 | 60 | 15 | 60
Cc1cccc(OCC(=O)N2N=C(Nc3ccccc3)SC2c2ccccc2)c1 (stereo unspecified) | 39 | 49 | 61 | 38 | 54 | 60 | 67 | 60 | 60 | 0 | 60
Cc1ccc(NC2=NN(C(=O)COc3cccc(C)c3)C(C)(C)S2)cc1 | 48 | 63 | 71 | 54 | 68 | 20 | 75 | 30 | 60 | 15 | 50
Cc1cccc(OCC(=O)N2N=C(Nc3ccc(Cl)cc3)SC2(C)C)c1 | 38 | 47 | 59 | 48 | 54 | 50 | 63 | 40 | 50 | 10 | 60
